According to ChEMBL document CHEMBL1147903, “Synthesis and antibacterial activity of oxazolidinones containing triazolyl group” (2007):
≈ marks a conversion by molar mass, not a printed value.

How the values were obtained:
Type in all cases: functional
[1] = tested on: Staphylococcus epidermidis; assay: Antibacterial activity against methicillin-susceptible Staphylococcus epidermidis by microdilution broth method
[2] = tested on: Streptococcus pneumoniae; assay: Antibacterial activity against penicillin-resistant Streptococcus pneumoniae by microdilution broth method
[3] = tested on: Enterococcus faecalis; assay: Antibacterial activity against Enterococcus faecalis by microdilution broth method
[4] = tested on: Staphylococcus aureus; assay: Antibacterial activity against methicillin-resistant Staphylococcus aureus by microdilution broth method
[5] = tested on: Staphylococcus epidermidis; assay: Antibacterial activity against methicillin-resistant Staphylococcus epidermidis by microdilution broth method
[6] = tested on: Staphylococcus aureus; assay: Antibacterial activity against methicillin-susceptible Staphylococcus aureus by microdilution broth method
[7] = tested on: Staphylococcus aureus; assay: Antibacterial activity against methicillin-resistant Staphylococcus aureus BAA-42 infected po dosed KunMing mouse
[8] = tested on: Staphylococcus epidermidis; assay: Antibacterial activity against methicillin-resistant Staphylococcus epidermidis 03427 infected po dosed KunMing mouse
[9] = tested on: Staphylococcus aureus; assay: Antibacterial activity against methicillin-susceptible Staphylococcus aureus 04-5 infected po dosed KunMing mouse

| Structure (SMILES) | MIC [1] | MIC [2] | MIC [3] | MIC [4] | MIC [5] | MIC [6] | ED50 [7] | ED50 [8] | ED50 [9] |
| --- | --- | --- | --- | --- | --- | --- | --- | --- | --- |
| Cc1ccc(S(=O)(=O)N2CCN(c3ccc(N4C[C@H](Cn5ccnn5)OC4=O)cc3F)CC2)cc1 | 0.5 µg/mL (≈ 0.999 µM) | 1 µg/mL (≈ 2 µM) | 2 µg/mL (≈ 4 µM) | 1 µg/mL (≈ 2 µM) | 2 µg/mL (≈ 4 µM) | 1 µg/mL (≈ 2 µM) |  |  |  |
| O=C1O[C@@H](Cn2ccnn2)CN1c1ccc(N2CCN(S(=O)(=O)c3cccs3)CC2)c(F)c1 | 1 µg/mL (≈ 2.03 µM) | 1 µg/mL (≈ 2.03 µM) | 1 µg/mL (≈ 2.03 µM) | 1 µg/mL (≈ 2.03 µM) | 1 µg/mL (≈ 2.03 µM) | 1 µg/mL (≈ 2.03 µM) |  |  |  |
| O=C1O[C@@H](Cn2ccnn2)CN1c1ccc(N2CCN(S(=O)(=O)c3ccc(F)cc3F)CC2)c(F)c1 | 1 µg/mL (≈ 1.91 µM) | 2 µg/mL (≈ 3.83 µM) | 2 µg/mL (≈ 3.83 µM) | 2 µg/mL (≈ 3.83 µM) | 1 µg/mL (≈ 1.91 µM) | 2 µg/mL (≈ 3.83 µM) |  |  |  |
| COc1ccc(S(=O)(=O)N2CCN(c3ccc(N4C[C@H](Cn5ccnn5)OC4=O)cc3F)CC2)cc1 | 2 µg/mL (≈ 3.87 µM) | 0.5 µg/mL (≈ 0.968 µM) | 2 µg/mL (≈ 3.87 µM) | 0.5 µg/mL (≈ 0.968 µM) | 2 µg/mL (≈ 3.87 µM) | 1 µg/mL (≈ 1.94 µM) |  |  |  |
| O=C1O[C@@H](Cn2ccnn2)CN1c1ccc(N2CCN(S(=O)(=O)c3ccccc3C(F)(F)F)CC2)c(F)c1 | 2 µg/mL (≈ 3.61 µM) | 0.5 µg/mL (≈ 0.902 µM) | 2 µg/mL (≈ 3.61 µM) | 0.5 µg/mL (≈ 0.902 µM) | 2 µg/mL (≈ 3.61 µM) | 1 µg/mL (≈ 1.8 µM) |  |  |  |
| O=C1O[C@@H](Cn2ccnn2)CN1c1ccc(N2CCNCC2)c(F)c1 | 1 µg/mL (≈ 2.89 µM) | 1 µg/mL (≈ 2.89 µM) | 2 µg/mL (≈ 5.77 µM) | 1 µg/mL (≈ 2.89 µM) | 1 µg/mL (≈ 2.89 µM) | 1 µg/mL (≈ 2.89 µM) |  |  |  |
| O=C1O[C@@H](Cn2ccnn2)CN1c1ccc(N2CCN(S(=O)(=O)c3cccc(C(F)(F)F)c3)CC2)c(F)c1 | 0.06 µg/mL (≈ 0.108 µM) | 0.015 µg/mL (≈ 0.0271 µM) | 0.03 µg/mL (≈ 0.0541 µM) | 0.06 µg/mL (≈ 0.108 µM) | 0.5 µg/mL (≈ 0.902 µM) | 0.06 µg/mL (≈ 0.108 µM) |  |  |  |
| O=C1O[C@@H](Cn2ccnn2)CN1c1ccc(N2CCN(S(=O)(=O)c3ccc(C(F)(F)F)cc3)CC2)c(F)c1 | 0.5 µg/mL (≈ 0.902 µM) | 0.5 µg/mL (≈ 0.902 µM) | 0.5 µg/mL (≈ 0.902 µM) | 1 µg/mL (≈ 1.8 µM) | 1 µg/mL (≈ 1.8 µM) | 0.5 µg/mL (≈ 0.902 µM) |  |  |  |
| O=C1O[C@@H](Cn2ccnn2)CN1c1ccc(N2CCN(S(=O)(=O)c3ccc(Cl)cc3)CC2)c(F)c1 | 0.5 µg/mL (≈ 0.96 µM) | 0.125 µg/mL (≈ 0.24 µM) | 0.25 µg/mL (≈ 0.48 µM) | 0.5 µg/mL (≈ 0.96 µM) | 0.5 µg/mL (≈ 0.96 µM) | 0.125 µg/mL (≈ 0.24 µM) |  |  |  |
| O=C1O[C@@H](Cn2ccnn2)CN1c1ccc(N2CCN(S(=O)(=O)c3cccc(F)c3)CC2)c(F)c1 | 0.25 µg/mL (≈ 0.496 µM) | 0.002 µg/mL (≈ 0.00396 µM) | 0.004 µg/mL (≈ 0.00793 µM) | 0.25 µg/mL (≈ 0.496 µM) | 1 µg/mL (≈ 1.98 µM) | 0.001 µg/mL (≈ 0.00198 µM) | > 100 mg/kg | > 100 mg/kg | 55.1 mg/kg |
| O=C1O[C@@H](Cn2ccnn2)CN1c1ccc(N2CCN(S(=O)(=O)c3ccc(F)cc3)CC2)c(F)c1 | 0.5 µg/mL (≈ 0.991 µM) | 0.5 µg/mL (≈ 0.991 µM) | 1 µg/mL (≈ 1.98 µM) | 1 µg/mL (≈ 1.98 µM) | 1 µg/mL (≈ 1.98 µM) | 0.5 µg/mL (≈ 0.991 µM) |  |  |  |
| O=C1O[C@@H](Cn2ccnn2)CN1c1ccc(N2CCN(S(=O)(=O)c3ccc([N+](=O)[O-])cc3)CC2)c(F)c1 | 1 µg/mL (≈ 1.88 µM) | 0.5 µg/mL (≈ 0.941 µM) | 1 µg/mL (≈ 1.88 µM) | 1 µg/mL (≈ 1.88 µM) | 1 µg/mL (≈ 1.88 µM) | 1 µg/mL (≈ 1.88 µM) |  |  |  |
| N#Cc1ccc(S(=O)(=O)N2CCN(c3ccc(N4C[C@H](Cn5ccnn5)OC4=O)cc3F)CC2)cc1 | 2 µg/mL (≈ 3.91 µM) | 4 µg/mL (≈ 7.82 µM) | 4 µg/mL (≈ 7.82 µM) | 0.5 µg/mL (≈ 0.977 µM) | 2 µg/mL (≈ 3.91 µM) | 2 µg/mL (≈ 3.91 µM) |  |  |  |
| Nc1cccc(S(=O)(=O)N2CCN(c3ccc(N4C[C@H](Cn5ccnn5)OC4=O)cc3F)CC2)c1 | 0.5 µg/mL (≈ 0.997 µM) | 0.5 µg/mL (≈ 0.997 µM) | 0.25 µg/mL (≈ 0.498 µM) | 0.25 µg/mL (≈ 0.498 µM) | 1 µg/mL (≈ 1.99 µM) | 0.125 µg/mL (≈ 0.249 µM) |  | > 100 mg/kg | > 100 mg/kg |
| O=C1O[C@@H](Cn2ccnn2)CN1c1ccc(N2CCN(S(=O)(=O)c3ccccc3)CC2)c(F)c1 | 0.5 µg/mL (≈ 1.03 µM) | 1 µg/mL (≈ 2.06 µM) | 2 µg/mL (≈ 4.11 µM) | 1 µg/mL (≈ 2.06 µM) | 2 µg/mL (≈ 4.11 µM) | 1 µg/mL (≈ 2.06 µM) |  |  |  |
| O=C1O[C@@H](Cn2ccnn2)CN1c1ccc(N2CCN(S(=O)(=O)c3ccc(Br)cc3)CC2)c(F)c1 | 8 µg/mL (≈ 14.1 µM) | 2 µg/mL (≈ 3.54 µM) | 2 µg/mL (≈ 3.54 µM) | 8 µg/mL (≈ 14.1 µM) | 4 µg/mL (≈ 7.07 µM) | 4 µg/mL (≈ 7.07 µM) |  |  |  |
| O=C1O[C@@H](Cn2ccnn2)CN1c1ccc(N2CCN(S(=O)(=O)c3cccc([N+](=O)[O-])c3)CC2)c(F)c1 | 0.06 µg/mL (≈ 0.113 µM) | 0.015 µg/mL (≈ 0.0282 µM) | 0.03 µg/mL (≈ 0.0564 µM) | 0.06 µg/mL (≈ 0.113 µM) | 0.5 µg/mL (≈ 0.941 µM) | 0.06 µg/mL (≈ 0.113 µM) | > 100 mg/kg | 84.3 mg/kg | 55.1 mg/kg |
| O=C(OCc1ccccc1)N1CCN(c2ccc(N3C[C@H](Cn4ccnn4)OC3=O)cc2F)CC1 | 1 µg/mL (≈ 2.08 µM) | 0.5 µg/mL (≈ 1.04 µM) | 0.5 µg/mL (≈ 1.04 µM) | 0.5 µg/mL (≈ 1.04 µM) | 0.5 µg/mL (≈ 1.04 µM) | 0.25 µg/mL (≈ 0.52 µM) |  |  |  |
| O=C1O[C@@H](Cn2ccnn2)CN1c1ccc(N2CCN(S(=O)(=O)c3ccccc3[N+](=O)[O-])CC2)c(F)c1 | 0.5 µg/mL (≈ 0.941 µM) | 0.5 µg/mL (≈ 0.941 µM) | 0.5 µg/mL (≈ 0.941 µM) | 1 µg/mL (≈ 1.88 µM) | 1 µg/mL (≈ 1.88 µM) | 0.5 µg/mL (≈ 0.941 µM) |  |  |  |
| CC(=O)NC[C@H]1CN(c2ccc(N3CCOCC3)c(F)c2)C(=O)O1 [LINEZOLID] | 1 µg/mL (≈ 2.96 µM) | 0.25 µg/mL (≈ 0.741 µM) | 0.25 µg/mL (≈ 0.741 µM) | 1 µg/mL (≈ 2.96 µM) | 0.5 µg/mL (≈ 1.48 µM) | 0.125 µg/mL (≈ 0.371 µM) | 17.9 mg/kg | 84.8 mg/kg | 24 mg/kg |
| CN[C@H](CC(C)C)C(=O)N[C@H]1C(=O)N[C@@H](CC(N)=O)C(=O)N[C@H]2C(=O)N[C@H]3C(=O)N[C@H](C(=O)N[C@H](C(=O)O)c4cc(O)cc(O)c4-c4cc3ccc4O)[C@H](O)c3ccc(c(Cl)c3)Oc3cc2cc(c3O[C@@H]2O[C@H](CO)[C@@H](O)[C@H](O)[C@H]2O[C@H]2C[C@](C)(N)[C@H](O)[C@H](C)O2)Oc2ccc(cc2Cl)[C@H]1O [VANCOMYCIN] | 0.5 µg/mL (≈ 0.345 µM) | 0.25 µg/mL (≈ 0.173 µM) | 0.25 µg/mL (≈ 0.173 µM) |  | 0.25 µg/mL (≈ 0.173 µM) | 0.25 µg/mL (≈ 0.173 µM) |  |  |  |
